Laboratory results reported in paper PMC13002968 (Oncogenesis, 2026).

Molecular target: programmed cell death protein 1 (PD-1) (Homo sapiens, UniProt Q15116)
Test: SPR
Format: binding

Chain of programmed cell death protein 1 (PD-1) (Q15116 25-288): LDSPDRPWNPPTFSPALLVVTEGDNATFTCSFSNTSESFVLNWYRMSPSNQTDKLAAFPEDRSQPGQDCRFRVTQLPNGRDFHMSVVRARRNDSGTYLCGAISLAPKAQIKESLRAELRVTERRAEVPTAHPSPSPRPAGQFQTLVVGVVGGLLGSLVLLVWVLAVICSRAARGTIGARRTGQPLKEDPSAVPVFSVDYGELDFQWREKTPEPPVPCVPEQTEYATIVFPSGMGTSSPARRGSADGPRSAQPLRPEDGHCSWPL

C/C(O)=C(\C#N)C(=O)Nc1ccc(C(F)(F)F)cc1 [TER, teriflunomide]
Kd: 1.47 nM
